In PMC4138103 (PLoS ONE, 2014):
Like-named read-outs stand apart in the source and are kept apart here.

Tests used:
Sprague-Dawley rats = test: Open field test for locomotor activity; format: in vivo, Rattus norvegicus; conditions: for Emax: Rattus norvegicus; for Habituation, distance, CED / Habituation, distance, CED-L / Habituation, time, CED / Habituation, time, CED-L / Percent distance in inner zone, day 24, CED / Percent distance in inner zone, day 24, CED-L / Percent time in inner zone, day 24, CED / Percent time in inner zone, day 24, CED-L: total dose based
Description: During the last 5 days of the study (days 24–28), rats were tested for locomotor activity in an octagonal open field (diameter 75 cm). The behavior was recorded on videotapes and automatically evaluated with a program for behavioral analyses (Ethovision, Noldus, NL). Each rat was tested for 5 min on each of the 5 days to allow the examination of habituation. Sequence of the rats to be tested was varied according to a permutation scheme to exclude a systematic influence of daytime on the outcome. For analyses, the area of the open field was divided in an inner zone (diameter 50 cm) and an outer ring (width 12.5 cm). Total distance moved during the recording period, distance moved in the inner zone of the open field, distance moved in outer zone, time in inner zone, and time in outer zone were extracted as parameters from the recordings.
Data were also analyzed using the BMD method, which is based on dose-response modeling of the full data set using a nested family of exponential and Hill models. The analyses were done on data of males and females combined, using sex as a covariate. […] In that case, different Critical Effect Doses (CEDs) and CEDs at the lowest bound of the confidence interval (CED-L) were generated for each sex. If no difference between sexes is detected, a CED and CED-Ls for the combined data is generated. However, this was also done if the curve fits are close, and separate analyses for males and females were then performed manually. CEDs and CED-Ls were calculated at the predefined Critical Effect Size (CES) of 5% (EFSA standard) or 10%.

[1] = system: Dopamine receptors D1 and D5; test: Brain [3H]SCH23390 binding in exposed rats; format: in vivo, Rattus norvegicus; conditions: males
Description: The membrane containing pellet was homogenized in 15 volumes of 50 mM Tris-HCl buffer at pH 7.4, incubated at 25°C for 30 min, and centrifuged again at 100 000 g. The pellet from the second centrifugation was dissolved in 4 ml 0.32 M sucrose/g brain (v/w), with a final protein concentration of […] and frozen at −40°C.
Dopamine receptors D1 and D5 were analyzed as described before, [39]. In brief, 50 µl (0.7 mg protein) of the membrane preparation was incubated with 124–132 µl buffer (50 mM tris-HCL, 120 mM NaCl, 5 mM KCl, 2,5 mM CaCl2 and 1 mM MgCl2, pH 7.4) and 100 nM ketanserine (Tocris Bioscience, Bristol, UK; to block binding of SCH23390 to the 5-HT receptor) to a final volume of 200 µl. For measuring unspecific binding […] SCH23390 was added to the same mixture. Finally, 1 nM [^3H]SCH23390 was added to all samples to measure binding of the receptors or unspecific binding. The samples were incubated for 30 min at 25°C followed by vacuum filtration and scintillation counting.
Samples were vacuum filtrated trough Whatman glassfiber-filters (type GF/B, 25 mm) and washed 3×3 ml ice-cold incubation buffer. To reduce unspecific binding, the filters where pre-wetted in 1% polyetylenimine for 60 min. […] Radioactive binding was measured as disintegration per minute (DPM1) in a scintillation counter (Tri-Carb 3100TR, Perkin Elmer). […]

[2] = rats; cited from earlier work
[3] = F, CES 5%, model E2, adipose tissue concentration based
[4] = F, CES 5%, model E4, adipose tissue concentration based
[5] = F, CES 10%, model E2, adipose tissue concentration based
[6] = F, CES 10%, model E4, adipose tissue concentration based
[7] = females, CES 5%, adipose tissue concentration based
[8] = females, adipose tissue concentration based

Clc1cc(Cl)c(-c2cc(Cl)c(Cl)c(Cl)c2Cl)cc1Cl [PCB 180, 2,2′,3′,4,4′,5,5′-heptachlorobiphenyl]
CED, Habituation, distance (Sprague-Dawley rats; [3]): 1340 µg/g lipid
CED, Habituation, time (Sprague-Dawley rats; [3]): 1130 µg/g lipid
CED-L, Habituation, distance (Sprague-Dawley rats; [3]): 865 µg/g lipid
CED-L, Habituation, time (Sprague-Dawley rats; [3]): 739 µg/g lipid
CED, Percent distance in inner zone, day 24 (Sprague-Dawley rats; [4]): 4.12 µg/g lipid
CED, Percent time in inner zone, day 24 (Sprague-Dawley rats; [4]): 1.55 µg/g lipid
CED-L, Percent distance in inner zone, day 24 (Sprague-Dawley rats; [4]): 1.16 µg/g lipid
CED-L, Percent time in inner zone, day 24 (Sprague-Dawley rats; [4]): 0.525 µg/g lipid
CED, Habituation, distance (Sprague-Dawley rats; [5]): 2740 µg/g lipid
CED, Habituation, time (Sprague-Dawley rats; [5]): 2320 µg/g lipid
CED-L, Habituation, distance (Sprague-Dawley rats; [5]): 1777 µg/g lipid
CED-L, Habituation, time (Sprague-Dawley rats; [5]): 1518 µg/g lipid
CED, Percent distance in inner zone, day 24 (Sprague-Dawley rats; [6]): 8.69 µg/g lipid
CED, Percent time in inner zone, day 24 (Sprague-Dawley rats; [6]): 3.17 µg/g lipid
CED-L, Percent distance in inner zone, day 24 (Sprague-Dawley rats; [6]): 2.423 µg/g lipid
CED-L, Percent time in inner zone, day 24 (Sprague-Dawley rats; [6]): 1.07 µg/g lipid
Emax (Sprague-Dawley rats; 576 h, F, model E4, controls vs high dose according to the fitted model, read-out: Maximum response, Percent distance in inner zone, day 24): 53%
Emax (Sprague-Dawley rats; 576 h, F, model E4, controls vs high dose according to the fitted model, read-out: Maximum response, Percent time in inner zone, day 24): 111%
Emax (Sprague-Dawley rats; 576 h, females, controls vs high dose, fitted model, read-out: Percent distance in inner zone, day 24, Maximum response): 53%
Emax (Sprague-Dawley rats; 576 h, females, controls vs high dose, fitted model, read-out: Percent time in inner zone, day 24, Maximum response): 107%
Emax (Sprague-Dawley rats; F, model E2, controls vs high dose according to the fitted model, read-out: Maximum response, Habituation, distance): -35.2%
Emax (Sprague-Dawley rats; F, model E2, controls vs high dose according to the fitted model, read-out: Maximum response, Habituation, time): -40.1%
Emax (Sprague-Dawley rats; females, controls vs high dose, fitted model, read-out: Habituation, distance, Maximum response): -33.2%
Emax (Sprague-Dawley rats; females, controls vs high dose, fitted model, read-out: Habituation, time, Maximum response): -37.7%
Percentage of distance moved in inner zone, day 24, CED (Sprague-Dawley rats; [7]): 4.12 µg/g lipid
Percentage of time in inner zone, day 24, CED (Sprague-Dawley rats; [7]): 1.55 µg/g lipid
Habituation, distance, CED (Sprague-Dawley rats; females, CES 5%): 216 mg/kg bw
Habituation, distance, CED-L (Sprague-Dawley rats; females, CES 5%): 138 mg/kg bw
Habituation, time, CED (Sprague-Dawley rats; females, CES 5%): 184 mg/kg bw
Habituation, time, CED-L (Sprague-Dawley rats; females, CES 5%): 118 mg/kg bw
Percent distance in inner zone, day 24, CED (Sprague-Dawley rats; females, CES 5%): 0.87 mg/kg bw
Percent distance in inner zone, day 24, CED-L (Sprague-Dawley rats; females, CES 5%): 0.25 mg/kg bw
Percent time in inner zone, day 24, CED (Sprague-Dawley rats; females, CES 5%): 0.35 mg/kg bw
Percent time in inner zone, day 24, CED-L (Sprague-Dawley rats; females, CES 5%): 0.11 mg/kg bw
Habituation, distance, CED (Sprague-Dawley rats; females, CES 10%): 444 mg/kg bw
Habituation, distance, CED-L (Sprague-Dawley rats; females, CES 10%): 283 mg/kg bw
Habituation, time, CED (Sprague-Dawley rats; females, CES 10%): 378 mg/kg bw
Habituation, time, CED-L (Sprague-Dawley rats; females, CES 10%): 243 mg/kg bw
Percent distance in inner zone, day 24, CED (Sprague-Dawley rats; females, CES 10%): 1.84 mg/kg bw
Percent distance in inner zone, day 24, CED-L (Sprague-Dawley rats; females, CES 10%): 0.53 mg/kg bw
Percent time in inner zone, day 24, CED (Sprague-Dawley rats; females, CES 10%): 0.71 mg/kg bw
Percent time in inner zone, day 24, CED-L (Sprague-Dawley rats; females, CES 10%): 0.23 mg/kg bw
Habituation, percentage of distance moved, CED (Sprague-Dawley rats; [8]): 1340 µg/g lipid
Habituation, time in inner zone, CED (Sprague-Dawley rats; [8]): 1130 µg/g lipid
Spontanous locomotor activity, CED-L (Sprague-Dawley rats; [8]): 525 ng/g lipid
Altered open field behavior, CED-L (Sprague-Dawley rats; females, critical effect for risk characterization): 0.525 µg/g lipid
Open field behavior, dose-response relations (Sprague-Dawley rats; males): No significant dose-response relations
Specific [3H]SCH23390 binding to D1/D5 dopamine receptors in cerebrum vs controls ([1]; 1000 mg/kg bw): No significant differences
Dopamine D1/D5 receptor binding ([1]; total dose 1000 mg/kg bw, group mean): 1075 DPM1
Elimination half-life [2]: 90 days
